Patent US6747061B2, “N-substituted dithiocarbamates for the treatment of biological disorders” (AtheroGenics, Inc., priority 2000, dated 2004)
pIC50: −log10 of the molar value. Where a name gives a salt, the structure may show the parent alone. Read-outs that look alike come from different tables or passages of the source. One block for each molecule: values may come before it.

Key:
[1] = system: VCAM-1; test: VCAM-1 assay: enzyme immunoassay of TNF-α induced VCAM-1 expression in endothelial cells; format: cell-based, Human; conditions: for pIC50: HAEC, TNF-α 1 ng/ml, approximately 16 hours, read-out: VCAM-1 IC50; for IC50: 16 h, read-out: VCAM-1 IC50 (μM)
Experimental: The VCAM-1 assay is an enzyme immunoassay to detect tumor necrosis factor alpha (TNF-α) induced Vascular Adhesion Molecule (VCAM-1) expression in endothelial cells.
Human endothelial cells (HAEC) were purchased from Clonetics and maintained in EGM media (Clonetics) supplemented with 5% fetal bovine serum (FBS). In a typical experiment, cells were seeded in 96-well plates. The next day cells were stimulated with TNF-α (1 ng/ml) purchased from Boehringer Mannheim in the presence or absence of compounds dissolved in dimethylsulphoxide (DMSO). To establish a dose curve for each compound, four concentrations in 2 fold increments were used. Cells were exposed to TNF-α and compounds for approximately 16 hours. The next day, cells were examined under microscope to score for visual signs of toxicity.
Media was discarded and the cells were washed once with Hanks buffered saline solution (HBSS)/phosphate buffered solution (PBS) 91:1). Primary mouse monoclonal antibody against VCAM-1 purchased from Southern Biotechnology Associates (0.25 μg/ml in HBSS/PBS+5% FBS) was added and incubated at 37° C. for 30 minutes. Cells were washed with HBSS/PBS three times, and secondary antibody horse radish peroxidase (HRP)-conjugated goat anti-mouse IgG purchased from Southern Biotechnology Associates (1:500 in HBSS/PBS+5% FBS) was added and incubated at 37° C. for 30 minutes. Cells were washed with HBSS/PBS four times and peroxidase substrate 3.3′,5,5′-tetramethyl-benzidine (TMB) was added and incubated in the dark at room temperature until there was adequate blue color development. The length of incubation time was typically 5-15 minutes. 2 N sulfuric acid was added to stop the color development and the data was collected by reading the absorbance at O.D. 450 nm. The result was expressed as the percentage of control sample (cells stimulated by TNF without any compound).

[2] = system: SNU-C5 colorectal carcinoma cells; test: Anti-proliferative effect on SNU-C5 cells (CellTiter96); format: cell-based; conditions: 5-FU alone 1 μM, read-out: proliferation, percent of control
Experimental: (§1) All primary cells and cell lines were commercially available. The transformed cell lines were grown in Dulbecco's Modified Eagle Media supplemented with 2 mM L-glutamine, 50 I.U. penicillin, 50 μg/ml streptomycin, nonessential amino acids and 10% heat-inactivated fetal bovine serum. HASM, HAEC and NHBE cells were cultured exactly as described by the commercial provider (Clonetics, San Diego, Calif.). All cell lines were grown at 37° C. in 5% CO2, with the media being changed every 48 hours.
(§2) For the experimental assays, cells were plated in 96-well plates and grown until ˜35% confluency was achieved. For the transformed cell lines, cells were plated at low density and grown for 72 hours prior to being stimulated, whereas the non-transformed cells were plated at a higher density and grown for 24 hours prior to being stimulated.
(§3) Cells were treated with dithiocarbamate (0.1-100 μM)±5FU (0.01-10 μM) and retreated after 48 hours when media was changed. Cell growth was assessed using the CellTiter96® assay system from Promega (Madison, Wis.). Each experimental condition was performed in triplicate or quadruplicate, with the number of experiments for each cell line being three.
(§4) Statistical significance was assessed using an ANOVA with the appropriate post-hoc analysis as well as Students t-tests. *=p<0.05 when compared to control-treated (DMSO) cells. #=p<0.05 when compared to 5FU-treated cells.

[3] = system: DLD-1 colorectal carcinoma cells; test: Anti-proliferative effect on DLD-1 cells (CellTiter96); format: cell-based; conditions: Homo sapiens, 5-FU alone 1 μM, read-out: proliferation, percent of control
Experimental: as §1, §2, §3, §4

[4] = system: HeLa; test: Proliferation of HeLa cells (FIG. 1, CellTiter96); format: cell-based; conditions: 10 μM dithiocarbamate + 0.1 μM 5-FU, or 0.1 μM 5-FU alone, 24-72 hours
Experimental: as §1, §2
(§5) Cells were treated with dithiocarbamate (0.1-100 μM)±5FU (0.01-10 μM) and retreated after 48 hours when media was changed. Cell growth was assessed using the CellTiter96® assay system from Promega (Madison, Wis.). […]
as §4

[5] = system: H1299; test: Proliferation of H1299 cells (FIG. 1, CellTiter96); format: cell-based; conditions: 10 μM dithiocarbamate + 0.1 μM 5-FU, or 0.1 μM 5-FU alone, 24-72 hours
Experimental: as §1, §2, §5, §4

[6] = system: MCF-7; test: Proliferation of MCF-7 cells (FIG. 1, CellTiter96); format: cell-based; conditions: 10 μM dithiocarbamate + 0.1 μM 5-FU, or 0.1 μM 5-FU alone, 24-72 hours
Experimental: as §1, §2, §5, §4

[7] = system: Saos-2; test: Proliferation of Saos-2 cells (FIG. 1, CellTiter96); format: cell-based; conditions: 10 μM dithiocarbamate + 0.1 μM 5-FU, or 0.1 μM 5-FU alone, 24-72 hours
Experimental: as §1, §2, §5, §4

[8] = system: T98G; test: Proliferation of T98G cells (FIG. 1, CellTiter96); format: cell-based; conditions: 10 μM dithiocarbamate + 0.1 μM 5-FU, or 0.1 μM 5-FU alone, 24-72 hours
Experimental: as §1, §2, §5, §4

[9] = system: HASM; test: Proliferation of non-transformed HASM cells (FIG. 1, CellTiter96); format: cell-based, Human; conditions: 10 μM dithiocarbamate + 0.1 μM 5-FU, or 0.1 μM 5-FU alone, 24-72 hours
Experimental: as §1, §2, §5, §4

[10] = system: HAEC; test: Proliferation of non-transformed HAEC cells (FIG. 1, CellTiter96); format: cell-based, Human; conditions: 10 μM dithiocarbamate + 0.1 μM 5-FU, or 0.1 μM 5-FU alone, 24-72 hours
Experimental: as §1, §2, §5, §4

[11] = system: NHBE; test: Proliferation of non-transformed NHBE cells (FIG. 1, CellTiter96); format: cell-based, Human; conditions: 10 μM dithiocarbamate + 0.1 μM 5-FU, or 0.1 μM 5-FU alone, 24-72 hours
Experimental: as §1, §2, §5, §4

Compound: O=c1[nH]cc(F)c(=O)[nH]1 [5-FU, 5-fluorouracil]
- activity at 1 µM ([2]; 24 HOURS): 109%
- activity at 1 µM ([2]; 48 HOURS): 85.5%
- activity at 1 µM ([2]; 72 HOURS): 86.1%
- activity at 1 µM ([3]; 24 HOURS): 90.8%
- activity at 1 µM ([3]; 48 HOURS): 85.8%
- activity at 1 µM ([3]; 72 HOURS): 113%
- inhibition of proliferation [4]: no significant inhibition of proliferation
- inhibition of proliferation [5]: no significant inhibition of proliferation
- inhibition of proliferation [6]: no significant inhibition of proliferation
- inhibition of proliferation [7]: no significant inhibition of proliferation
- inhibition of proliferation [8]: no significant inhibition of proliferation
- inhibition of proliferation [9]: no significant inhibition of proliferation
- inhibition of proliferation [10]: no significant inhibition of proliferation
- inhibition of proliferation [11]: no significant inhibition of proliferation

Compound: NC(CSC(=S)NCc1ccccc1)C(=O)O (stereo not shown) [(2-Amino-3-benzylthiocarbamoylsulfanyl)propionic acid]
- pIC50 [1]: 5.15

Compound: CC(C)CNC(=S)SCc1ccc(Cl)cc1Cl [Isobutyldithiocarbamic acid 2,4-dichlorobenzyl ester]
- IC50 ([1]; Homo sapiens, Endothelial cell): 32 µM

Compound: COC(=O)CCCSC(=S)NCC1CCCCC1 [4-(Cyclohexylmethylthiocarbamoylsulfanyl)butyric acid methyl ester]
- pIC50 ([1]; Homo sapiens, Endothelial cell): 4.40

Compound: CCCCCCCCCCCCSC(=S)NCCc1ccccc1 [Phenethyldithiocarbamic acid dodecyl ester]
- pIC50 ([1]; Homo sapiens, Endothelial cell): 4.52

Compound: CNC(=S)Sc1ccc(F)cc1F [Methyldithiocarbamic acid 2,4-difluorophenyl ester]
- pIC50 ([1]; Homo sapiens, Endothelial cell): 4.74

Compound: COCCNC(=S)SCCCC(=O)OC [II: X=CH3O, Y′=C(O)OCH3, N=2, m=3, 4-(2-Methoxy-ethylthiocarbamoylsulfanyl)butyric acid methyl ester]
- pIC50 ([1]; Homo sapiens, Endothelial cell): 4.96

Compound: C=CCNC(=S)SCCN [Allyldithiocarbamic acid 2-aminoethyl ester hydrochloride]
- pIC50 ([1]; Homo sapiens, Endothelial cell): 4.92

Compound: CNC(=S)SCCC(=O)OC [II: X=H, Y′=C(O)OCH3, N=1, m=2, 3-(Methylthiocarbamoylsulfanyl)propionic acid methyl ester]
- pIC50 ([1]; Homo sapiens, Endothelial cell): 4.85

Compound: CCN(CC)CCNC(=S)SCCC(=O)OC [3-(2-Diethylamino-ethylthiocarbamoylsulfanyl)-propionic acid methyl ester]
- pIC50 ([1]; Homo sapiens, Endothelial cell): 4.43

Compound: CCOC(=O)CCCNC(=S)SCC1CCCO1 (stereo not shown) [4-(Tetrahydrofuran-2-ylmethylsulfanyllthio-carbonylamino)butyric acid ethyl ester]
- pIC50 [1]: 5.30

Compound: COC(=O)CCCSC(=S)NCc1ccccc1 [4-(Benzylthiocarbamoylsulfanyl)butyric acid methyl ester]
- pIC50 ([1]; Homo sapiens, Endothelial cell): 4.60

Compound: COC(=O)CCCSC(=S)NCCC1CCCN1C (stereo not shown) [4-[2-(1-Methylpyrrolidin-2-yl)ethylthiocarbamoyl-sulfanyl]butyric acid methyl ester]
- pIC50 ([1]; Homo sapiens, Endothelial cell): 4.74

Compound: COC(=O)CCSC(=S)NCc1ccco1 [3-(Furan-2-ylmethylthiocarbamoyl-sulfanyl)propionic acid methyl ester]
- IC50 ([1]; Homo sapiens, Endothelial cell): 6 µM

Compound: S=C(NCc1ccc(Cl)cc1Cl)SCc1ccc(Cl)cc1Cl [(2,4-dichlorobenzyl)dithiocarbamic acid 2,4-dichlorobenzyl ester]
- IC50 ([1]; Homo sapiens, Endothelial cell): 8 µM

Compound: COC(=O)CCCCCSC(=S)NCC1CCCO1 (stereo not shown) [III: Y′=(CH2)5C(O)OCH2CH3, 6-(Tetrahydrofuran-2-ylmethylthiocarbamoyl-sulfanyl)hexanoic acid methyl ester]
- pIC50 ([1]; Homo sapiens, Endothelial cell): 4.96

Compound: C=CCNC(=S)SCCCC(=O)OC [4-(Allylthiocarbamoylsulfanyl)butyric acid methyl ester]
- pIC50 ([1]; Homo sapiens, Endothelial cell): 4.52

Compound: CCOC(=O)NC(=S)SCCC(=O)OC [3-(Ethoxycarbonylthiocarbamoylsulfanyl)propionic acid methyl ester]
- pIC50 ([1]; Homo sapiens, Endothelial cell): 4.30

Compound: COC(=O)CCCSC(=S)NCCc1cc2ccccc2[nH]1 [4-[2-(1H-Indol-2-yl)ethylthiocarbamoyl-sulfanyl]butyric acid methyl ester]
- IC50 ([1]; Homo sapiens, Endothelial cell): 5 µM

More lines, now with the values ahead:

- pIC50 ([1]; Homo sapiens, Endothelial cell): 5.70
Compound: COc1cccc(CNC(=S)SCC(=O)C(C)(C)C)c1 [(3-Methoxybenzyl)dithiocarbamic acid 3,3-dimethyl-2-oxo-butyl ester]

- pIC50 ([1]; Homo sapiens, Endothelial cell): 5.00
Compound: COC(=O)CSC(=S)NCC1CCCO1 (stereo not shown) [III: Y′=CH2C(O)OCH3, (Tetrahydrofuran-2-ylmethylthiocarbamoylsulfanyl)acetic acid methyl ester]

- pIC50 ([1]; Homo sapiens, Endothelial cell): 5.22
Compound: COCCCNC(=S)Sc1ccc(Cl)cc1 [(3-Methoxypropyl)dithiocarbamic acid 4-chlorophenyl ester]

- pIC50 ([1]; Homo sapiens, Endothelial cell): 5.52
Compound: N#CCCCSC(=S)NCC1CCCO1 (stereo not shown) [III: Y′=(CH2)3CN, (Tetrahydrofuran-2-ylmethyl)dithiocarbamic acid 3-cyano-propyl ester]

- pIC50 ([1]; Homo sapiens, Endothelial cell): 5.82
Compound: S=C(NCc1cccnc1)SCc1cc(Cl)sc1Cl [(Pyridin-3-ylmethyl)dithiocarbamic acid 2,5-dichloro-thiophen-3-ylmethyl ester]

- pIC50 ([1]; Homo sapiens, Endothelial cell): 5.15
Compound: O=C(O)CCCSC(=S)NCC1CCCO1 (stereo not shown) [III: Y′=(CH2)3C(O)OH, 4-(Tetrahydrofuran-2-ylmethylthiocarbamoylsulfanyl)-butyric acid]

- pIC50 ([1]; Homo sapiens, Endothelial cell): 5.52
Compound: COC(=O)CCCSC(=S)NC[C@H]1CCCO1 [4-((R)-Tetrahydrofuran-2-ylmethylthiocarbamoyl-sulfanyl)butyric acid methyl ester]

- pIC50 ([1]; Homo sapiens, Endothelial cell): 5.19
Compound: CSC(=S)NCC1CCCO1 (stereo not shown) [III: Y′=CH3, (Tetrahydrofuran-2-ylmethyl)dithiocarbamic acid methyl ester]

- pIC50 ([1]; Homo sapiens, Endothelial cell): 5.52
Compound: COC(=O)CCSC(=S)NCC1CCCO1 (stereo not shown) [III: Y′=(CH2)2C(O)OCH3, 3-(Tetrahydrofuran-2-ylmethylthiocarbamoylsulfanyl)-propionic acid methyl ester]

- pIC50 ([1]; Homo sapiens, Endothelial cell): 5.52
Compound: COC(=O)CCCSC(=S)NC[C@@H]1CCCO1 [4-((S)-Tetrahydrofuran-2-ylmethylthiocarbamoyl-sulfanyl)butyric acid methyl ester]

- pIC50 ([1]; Homo sapiens, Endothelial cell): 5.15
Compound: CC(=O)CCCSC(=S)NCC1CCCO1 (stereo not shown) [III: Y′=(CH2)3C(O)CH3, (Tetrahydrofuran-2-ylmethyl)dithiocarbamic acid 4-oxo-pentyl ester]
